Source: US5519115A, “Reverse antimicrobial peptides” (priority 1993, dated 1996)

How the values were obtained:
P3 Fusarium = test: Antifungal bioassay (MCIC, spore germination); assay type: cell-based, P3 Fusarium (field isolate); details: 10^7 spores/test; mean after 24 hours of treatment, at least three replicates
Procedure: Fungi were grown on an appropriate medium, in this case a potato dextrose agar plate, for several weeks. At the end of that period, the plate was flooded with about 5 mL of sterile distilled water to harvest spores. The spore concentration was determined by use of a hemocytometer and the spore suspension was stored in a sterile tube at 4° C. until it was needed. Then 82 microliters of potato dextrose broth and 3 microliters of spore suspension (ranging from 10^5 to 10^7 spores total) were added to 12 wells in a 96 well microtiter plate for each AMPPP to be tested, with 1-4 replicate sets of 12 wells prepared for each AMPPP within a single experiment. […] The amount of spore germination and fungal growth was recorded as a quantitative measurement at each observation time using a system of pluses and minuses: [-] meant no germination having occurred, [+] meant swollen spores with an extended germ tube, [++] meant the beginnings of mycelial growth with the overall appearance of a loose lattice, and [+++] meant a dense mycelial growth with the overall appearance of a thick opaque meshwork. The MCIC value for each AMPPP tested was then recorded, where the MCIC value is defined as the lowest peptide concentration at which no spore germination occurred (rating=[-]). […]

[1] = system: Erwinia carotovora carotovora strain SR319 (Ecc SR319); test: Antibacterial bioassay (MCIC); assay type: cell-based
Procedure: Erwinia carotovora carotovora strain SR319 (Ecc SR319) (a gift of Dr. C. H. Liao, USDA-ARS, Philadelphia, Pa.) was streaked on a plate of Luria-Bertani ("LB") broth agar and grown overnight at 28° C. After 24 hours, a loopful of Ecc SR319 was picked from the agar plate and was added to 3 ml of LB broth (10 g Bacto-tryptone, 5 g Bacto-yeast extract, and 10 g sodium chloride per liter of solution; autoclaved sterile) in a capped sterile 10 ml test tube. This culture was grown overnight before its optical density at 630 nm was recorded using a Dynatech MR 600 microplate reader (Dynatech Laboratories, Inc., Alexandria, Va.). A portion of the overnight culture was adjusted with Luria broth to obtain a culture with an optical density at 630 nm of 0.2. About 250 microliters of this culture was added to 2250 microliters of Luria broth in a capped, sterile 10 ml test tube before this diluted culture was grown for 3-4 hours at 28° C. in a shaking incubator until the optical density of the freshly grown culture at 630 nm reached 0.2. […] The optical density of each Ecc SR319 culture well was recorded at 20 hours and then at 44 hours. A minimum complete inhibitory concentration (MCIC) was then determined for each replicate set of varying peptide concentrations at which no bacterial growth was observed. […]

Which results are given for “Met-Mag 1 dimer (head-to-tail) [Peptide No. 9]”?
MCIC Values With: P3 Fusarium (P3 Fusarium): 15+/-6 micrograms per mL; MCIC Values (Ecc SR319) ([1]; mean after 20 hours of treatment, at least three replicate experiments): 33 +/- 5 micrograms per mL; activity against Ecc SR319 compared with parent monomers (in words) ([1]; tested at equivalent microgram per mL quantities, parent monomers Pep Nos. 1, 2, 4, and 12): better activity than at least one of the parent monomers
